Laboratory results published in US20050100983A1, “Cell-free methods for identifying compounds that affect toll-like receptor 9 (TLR9) signaling” (Coley Pharmaceutical GmbH, priority 2003, published 2005).

Tests used:
[1] = molecular target: T1, mTLR9ect-mut (D535→A and Y537→A) (Mus musculus, UniProt Q9EQU3, D535A/Y537A); experiment: SPR biosensor analysis of double mutated mTLR9ect-mut on CpG-DNA; assay type: binding, murine; conditions: 200 nM protein, compared to wild-type mTLR9ect
T1 construct: mTLR9ect-mut (see below) (aa 1-816); made in house
T1 sequence (Q9EQU3 26-816 D535A/Y537A): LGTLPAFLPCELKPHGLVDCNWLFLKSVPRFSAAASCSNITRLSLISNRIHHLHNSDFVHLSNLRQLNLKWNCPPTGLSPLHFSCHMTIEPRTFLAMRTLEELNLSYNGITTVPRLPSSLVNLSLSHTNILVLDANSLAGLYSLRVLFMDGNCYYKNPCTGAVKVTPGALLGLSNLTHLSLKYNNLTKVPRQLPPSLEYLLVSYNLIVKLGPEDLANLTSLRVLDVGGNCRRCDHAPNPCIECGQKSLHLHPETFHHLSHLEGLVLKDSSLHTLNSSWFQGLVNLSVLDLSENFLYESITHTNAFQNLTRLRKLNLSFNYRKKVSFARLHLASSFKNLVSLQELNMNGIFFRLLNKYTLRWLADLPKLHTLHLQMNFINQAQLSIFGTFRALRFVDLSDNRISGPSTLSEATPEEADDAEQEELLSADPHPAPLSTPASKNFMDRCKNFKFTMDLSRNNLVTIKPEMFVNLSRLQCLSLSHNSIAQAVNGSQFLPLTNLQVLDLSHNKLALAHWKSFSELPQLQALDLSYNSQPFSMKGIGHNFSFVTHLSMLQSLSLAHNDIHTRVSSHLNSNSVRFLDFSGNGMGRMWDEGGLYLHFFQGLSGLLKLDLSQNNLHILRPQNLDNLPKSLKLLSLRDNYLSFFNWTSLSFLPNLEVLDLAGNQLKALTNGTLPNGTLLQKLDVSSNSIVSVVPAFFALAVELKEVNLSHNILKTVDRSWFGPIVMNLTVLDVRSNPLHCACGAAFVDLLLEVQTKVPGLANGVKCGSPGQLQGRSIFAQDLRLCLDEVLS
Procedure: FIG. 3B is a graph depicting SPR biosensor analysis of wild-type and double mutated mTLR9ect (mTLR9ect-mut, D535→A and Y537→A). Proteins were injected at 200 nM on sensor chips with immobilized CpG- and non-CpG-DNA and the sensorgrams recorded.
(§1) Mutation. For mutation of wild-type mTLR9 amino acids D535 and Y537 to two alanines, the primers 5′-[…]-3′ (SEQ ID NO:5) and 5′-[…]-3′ (SEQ ID NO:6) were used to generate mTLR9-mut. A site-specific-mutagenesis kit from Stratagene (Amsterdam, Netherlands) was applied according to the manufacturer's protocol. All PCR fragments were sequenced and found error-free.
SPR biosensor analysis. Real-time binding of TLR9 or TLR2 was measured by surface plasmon resonance biosensor technology using the BiaCore X system (Uppsala, Sweden). For analysis of TLR9 and TLR2 interaction, biotinylated CpG-DNA and non-CpG-DNA, or biotinylated Pam3CysK4 and PHCK4, respectively, were loaded in running buffer (50 mM MES, 150 mM NaCl, 1 mM MgCl2 at pH 6.5) on SA chips precoated with streptavidin (Biacore AB, Uppsala, Sweden). Non-CpG-DNA or PHCK4 (Wiesmuller K H et al. (1989) Vaccine 7:29-33) served as reference for CpG-DNA and Pam3CysK4 interaction (structure or sequence in Table 1). […] Binding was measured at 25° C. for 750 s (delay time 300 s). […] Sensorgrams were recorded and kinetic data were calculated by the BiaCore Evaluation program (Biacore, version 3.0.1). […]

[2] = tested on: mTLR9mut (D535→A and Y537→A); experiment: NF-κB luciferase assay, HEK 293 cells transfected with mutated full length mTLR9; assay type: cell-based, murine; conditions: 1 μM CpG-DNA
Procedure: FIG. 3D is a bar graph depicting activation of mTLR9- and mTLR9mut-transfected cells from FIG. 3C. Cells were stimulated with 1 μM CpG-DNA or 10 ng/ml of the TLR-independent stimulus 12-O-tetradecanoylphorbol 13-acetate (TPA) and subsequent NF-κB induction was analyzed. Activation is expressed as fold induction compared to no stimulation.
as §1
NF-κB luciferase assay. For monitoring transient NF-κB activation, 3×10^6 HEK 293 cells were electroporated at 200 volt and 950 μF with 20 ng of a NF-κB luciferase reporter plasmid (kindly provided by Patrick Baeuerle, Munich, Germany) and 1 μg mTLR2 (kindly provided by Tularik, Inc., South San Francisco, USA), mTLR9, or mTLR9-mut expression plasmid. Cells were seeded at 10^5 cells per well and after overnight culture stimulated with 1 μM phosphorothioated CpG-DNA 1668 (SEQ ID NO:1), 1 μM non-CpG-DNA 1668GC (SEQ ID NO:3), 1 μg/ml Pam3CysK4 or 1 μg/ml PHCK4 for further 8 hours. […]

5′-TCCATGACGTTCCTGATGCT-3′ (chemistry not given here) [CpG-DNA 1668, synthetic CpG oligodeoxynucleotide, TLR9 ligand]
binding of mTLR9ect-mut to CpG-DNA [1]: bound only weakly
response of cells with mutated full length mTLR9 to CpG-DNA (NF-κB induction) [2]: did not respond
